In PubChem BioAssay (NCI):
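Exposure lasted 48 hours, with cells grown in 96-well plates and compounds tested at five concentrations. Definition used: TGI = concentration required for complete inhibition of growth.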

Legend:
Assay in all cases: inhibition of tumour cell growth, NCI panel, 48 h
786-0 renal = system: 786-0 renal
A498 renal = system: A498 renal
A549 NSCLC = system: A549 NSCLC
ACHN renal = system: ACHN renal
BT-549 breast = system: BT-549 breast
CAKI-1 renal = system: CAKI-1 renal
CCRF-CEM leukemia = system: CCRF-CEM leukemia
COLO 205 colon = system: COLO 205 colon
DU-145 prostate = system: DU-145 prostate
EKVX NSCLC = system: EKVX NSCLC
HCT-116 colon = system: HCT-116 colon
HCT-15 colon = system: HCT-15 colon
HL-60(TB) leukemia = system: HL-60(TB) leukemia
HOP-62 NSCLC = system: HOP-62 NSCLC
HOP-92 NSCLC = system: HOP-92 NSCLC
HT29 colon = system: HT29 colon
IGROV1 ovarian = system: IGROV1 ovarian
K-562 leukemia = system: K-562 leukemia
LOX IMVI melanoma = system: LOX IMVI melanoma
M14 melanoma = system: M14 melanoma
MALME-3M melanoma = system: MALME-3M melanoma
MCF7 breast = system: MCF7 breast
MDA-MB-231 breast = system: MDA-MB-231 breast
MDA-MB-435 = system: MDA-MB-435
MDA-N = system: MDA-N
MOLT-4 leukemia = system: MOLT-4 leukemia
NCI-H226 lung = system: NCI-H226 lung
NCI-H23 lung = system: NCI-H23 lung
NCI-H522 lung = system: NCI-H522 lung
NCI/ADR-RES ovarian = system: NCI/ADR-RES ovarian
OVCAR-3 ovarian = system: OVCAR-3 ovarian
OVCAR-4 ovarian = system: OVCAR-4 ovarian
OVCAR-5 ovarian = system: OVCAR-5 ovarian
OVCAR-8 ovarian = system: OVCAR-8 ovarian
PC-3 prostate = system: PC-3 prostate
RPMI-8226 leukemia = system: RPMI-8226 leukemia
RXF 393 renal = system: RXF 393 renal
SF-268 CNS = system: SF-268 CNS
SF-295 CNS = system: SF-295 CNS
SF-539 CNS = system: SF-539 CNS
SK-MEL-2 melanoma = system: SK-MEL-2 melanoma
SK-MEL-28 melanoma = system: SK-MEL-28 melanoma
SK-MEL-5 melanoma = system: SK-MEL-5 melanoma
SK-OV-3 ovarian = system: SK-OV-3 ovarian
SN12C renal = system: SN12C renal
SNB-19 CNS = system: SNB-19 CNS
SNB-75 CNS = system: SNB-75 CNS
SR leukemia = system: SR leukemia
T-47D breast = system: T-47D breast
TK-10 renal = system: TK-10 renal
U251 CNS = system: U251 CNS
UACC-257 melanoma = system: UACC-257 melanoma
UACC-62 melanoma = system: UACC-62 melanoma
UO-31 renal = system: UO-31 renal
HCC-2998 colon = system: HCC-2998 colon
HS 578T breast = system: HS 578T breast
KM12 colon = system: KM12 colon
NCI-H460 lung = system: NCI-H460 lung
SW-620 colon = system: SW-620 colon

CC(=O)N(C)c1ccc(N=CN(C)C)cc1
TGI (786-0 renal): > 100 µM | TGI (A498 renal): > 100 µM | TGI (A549 NSCLC): > 100 µM | TGI (ACHN renal): > 100 µM | TGI (BT-549 breast): > 100 µM | TGI (CAKI-1 renal): > 100 µM | TGI (CCRF-CEM leukemia): > 100 µM | TGI (COLO 205 colon): > 100 µM | TGI (DU-145 prostate): > 100 µM | TGI (EKVX NSCLC): > 100 µM | TGI (HCT-116 colon): > 100 µM | TGI (HCT-15 colon): > 100 µM | TGI (HL-60(TB) leukemia): > 100 µM | TGI (HOP-62 NSCLC): > 100 µM | TGI (HOP-92 NSCLC): > 100 µM | TGI (HT29 colon): > 100 µM | TGI (IGROV1 ovarian): > 100 µM | TGI (K-562 leukemia): > 100 µM | TGI (LOX IMVI melanoma): > 100 µM | TGI (M14 melanoma): > 100 µM | TGI (MALME-3M melanoma): > 100 µM | TGI (MCF7 breast): > 100 µM | TGI (MDA-MB-231 breast): > 100 µM | TGI (MDA-MB-435): > 100 µM | TGI (MDA-N): > 100 µM | TGI (MOLT-4 leukemia): > 100 µM | TGI (NCI-H226 lung): > 100 µM | TGI (NCI-H23 lung): > 100 µM | TGI (NCI-H522 lung): > 100 µM | TGI (NCI/ADR-RES ovarian): > 100 µM | TGI (OVCAR-3 ovarian): > 100 µM | TGI (OVCAR-4 ovarian): > 100 µM | TGI (OVCAR-5 ovarian): > 100 µM | TGI (OVCAR-8 ovarian): > 100 µM | TGI (PC-3 prostate): > 100 µM | TGI (RPMI-8226 leukemia): > 100 µM | TGI (RXF 393 renal): > 100 µM | TGI (SF-268 CNS): > 100 µM | TGI (SF-295 CNS): > 100 µM | TGI (SF-539 CNS): > 100 µM | TGI (SK-MEL-2 melanoma): > 100 µM | TGI (SK-MEL-28 melanoma): > 100 µM | TGI (SK-MEL-5 melanoma): > 100 µM | TGI (SK-OV-3 ovarian): > 100 µM | TGI (SN12C renal): > 100 µM | TGI (SNB-19 CNS): > 100 µM | TGI (SNB-75 CNS): > 100 µM | TGI (SR leukemia): > 100 µM | TGI (T-47D breast): > 100 µM | TGI (TK-10 renal): > 100 µM | TGI (U251 CNS): > 100 µM | TGI (UACC-257 melanoma): > 100 µM | TGI (UACC-62 melanoma): > 100 µM | TGI (UO-31 renal): > 100 µM

S=C(NNC1=NCCCCN1)Nc1ccc(Cl)cc1
TGI (786-0 renal): > 100 µM | TGI (A498 renal): > 100 µM | TGI (A549 NSCLC): > 100 µM | TGI (ACHN renal): 90.2 µM | TGI (BT-549 breast): > 100 µM | TGI (CAKI-1 renal): 0.0151 µM | TGI (CCRF-CEM leukemia): > 100 µM | TGI (COLO 205 colon): 34.5 µM | TGI (EKVX NSCLC): > 100 µM | TGI (HCC-2998 colon): > 100 µM | TGI (HCT-116 colon): > 100 µM | TGI (HCT-15 colon): > 100 µM | TGI (HL-60(TB) leukemia): > 100 µM | TGI (HOP-62 NSCLC): 31.7 µM | TGI (HOP-92 NSCLC): > 100 µM | TGI (HS 578T breast): > 100 µM | TGI (HT29 colon): > 100 µM | TGI (IGROV1 ovarian): > 100 µM | TGI (K-562 leukemia): > 100 µM | TGI (KM12 colon): > 100 µM | TGI (LOX IMVI melanoma): > 100 µM | TGI (M14 melanoma): 22.1 µM | TGI (MALME-3M melanoma): 55.7 µM | TGI (MCF7 breast): > 100 µM | TGI (MDA-MB-231 breast): > 100 µM | TGI (MDA-MB-435): > 100 µM | TGI (MDA-N): > 100 µM | TGI (MOLT-4 leukemia): 47.1 µM | TGI (NCI-H226 lung): > 100 µM | TGI (NCI-H23 lung): > 100 µM | TGI (NCI-H460 lung): > 100 µM | TGI (NCI-H522 lung): 42.3 µM | TGI (NCI/ADR-RES ovarian): > 100 µM | TGI (OVCAR-3 ovarian): > 100 µM | TGI (OVCAR-4 ovarian): > 100 µM | TGI (OVCAR-5 ovarian): > 100 µM | TGI (OVCAR-8 ovarian): > 100 µM | TGI (PC-3 prostate): 62.8 µM | TGI (RPMI-8226 leukemia): > 100 µM | TGI (RXF 393 renal): > 100 µM | TGI (SF-268 CNS): > 100 µM | TGI (SF-295 CNS): 57.5 µM | TGI (SF-539 CNS): 76.5 µM | TGI (SK-MEL-2 melanoma): > 100 µM | TGI (SK-MEL-28 melanoma): > 100 µM | TGI (SK-MEL-5 melanoma): 20.5 µM | TGI (SK-OV-3 ovarian): 93.1 µM | TGI (SNB-19 CNS): > 100 µM | TGI (SNB-75 CNS): > 100 µM | TGI (SR leukemia): 60.9 µM | TGI (SW-620 colon): > 100 µM | TGI (T-47D breast): > 100 µM | TGI (TK-10 renal): > 100 µM | TGI (U251 CNS): > 100 µM | TGI (UACC-257 melanoma): 43.9 µM | TGI (UACC-62 melanoma): 18.9 µM | TGI (UO-31 renal): 31.6 µM
